Experiment in all cases: biochemical
Format in all cases: biochemical

Test [1] concerns the target 363 human kinases (including Aurora A/B/C) (Homo sapiens, UniProt P08581). To be noted: c-MET, [ATP] 30 µM; for remaining activity at 0.5 µM / remaining activity at 0.1 µM: read-out: % Enzyme Activity (relative to DMSO controls); for remaining activity at 0.1 µM: 100 nM.
Text: (§1) However, the Aurora A/B selectivity ratios derived from our in vitro and in vivo data can be compared to prioritize inhibitors.
In test [2] the target is 363 human kinases (including Aurora A/B/C) (Homo sapiens, UniProt P49841). To be noted: GSK3b; for remaining activity at 0.5 µM / remaining activity at 0.1 µM: read-out: % Enzyme Activity (relative to DMSO controls); for remaining activity at 0.1 µM: 100 nM.
Text: as §1
Test [3] concerns the target 363 human kinases (including Aurora A/B/C) (Homo sapiens, UniProt P53350). The following applies: PLK1; for remaining activity at 0.5 µM / remaining activity at 0.1 µM: read-out: % Enzyme Activity (relative to DMSO controls); for remaining activity at 0.1 µM: 100 nM.
Text: as §1
In test [4] the target is T1, 363 human kinases (including Aurora A/B/C) (Homo sapiens, UniProt Q13043).
T1 sequence (Q13043 1-487): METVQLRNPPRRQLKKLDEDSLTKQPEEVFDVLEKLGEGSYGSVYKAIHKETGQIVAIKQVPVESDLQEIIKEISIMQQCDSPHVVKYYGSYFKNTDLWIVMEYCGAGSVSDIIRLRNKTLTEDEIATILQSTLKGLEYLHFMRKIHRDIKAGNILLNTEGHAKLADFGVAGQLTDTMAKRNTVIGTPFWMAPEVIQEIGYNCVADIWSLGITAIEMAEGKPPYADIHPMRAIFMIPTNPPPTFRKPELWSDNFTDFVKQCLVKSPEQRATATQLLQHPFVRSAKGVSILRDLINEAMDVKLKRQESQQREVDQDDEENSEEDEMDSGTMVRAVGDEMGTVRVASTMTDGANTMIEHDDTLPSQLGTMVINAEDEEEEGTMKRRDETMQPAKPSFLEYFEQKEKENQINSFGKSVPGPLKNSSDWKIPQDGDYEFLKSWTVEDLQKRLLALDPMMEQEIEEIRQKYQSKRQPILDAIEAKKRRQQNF
To be noted: MST1/STK4; for remaining activity at 0.5 µM / remaining activity at 0.1 µM: read-out: % Enzyme Activity (relative to DMSO controls); for remaining activity at 0.1 µM: 100 nM.
Text: as §1

For test [5], the target named is 363 human kinases (including Aurora A/B/C) (Homo sapiens, UniProt Q13554). To be noted: CAMK2b, [ATP] 100 µM; for remaining activity at 0.5 µM / remaining activity at 0.1 µM: read-out: % Enzyme Activity (relative to DMSO controls); for remaining activity at 0.1 µM: 100 nM.
Text: as §1
Test [6] addresses 363 human kinases (including Aurora A/B/C) (Homo sapiens, UniProt Q16644). The following applies: MAPKAPK3; for remaining activity at 0.5 µM / remaining activity at 0.1 µM: read-out: % Enzyme Activity (relative to DMSO controls); for remaining activity at 0.1 µM: 100 nM.
Text: as §1
Test [7] addresses T2, 363 human kinases (including Aurora A/B/C) (Homo sapiens, UniProt Q32MK0).
T2 sequence (Q32MK0 1-819): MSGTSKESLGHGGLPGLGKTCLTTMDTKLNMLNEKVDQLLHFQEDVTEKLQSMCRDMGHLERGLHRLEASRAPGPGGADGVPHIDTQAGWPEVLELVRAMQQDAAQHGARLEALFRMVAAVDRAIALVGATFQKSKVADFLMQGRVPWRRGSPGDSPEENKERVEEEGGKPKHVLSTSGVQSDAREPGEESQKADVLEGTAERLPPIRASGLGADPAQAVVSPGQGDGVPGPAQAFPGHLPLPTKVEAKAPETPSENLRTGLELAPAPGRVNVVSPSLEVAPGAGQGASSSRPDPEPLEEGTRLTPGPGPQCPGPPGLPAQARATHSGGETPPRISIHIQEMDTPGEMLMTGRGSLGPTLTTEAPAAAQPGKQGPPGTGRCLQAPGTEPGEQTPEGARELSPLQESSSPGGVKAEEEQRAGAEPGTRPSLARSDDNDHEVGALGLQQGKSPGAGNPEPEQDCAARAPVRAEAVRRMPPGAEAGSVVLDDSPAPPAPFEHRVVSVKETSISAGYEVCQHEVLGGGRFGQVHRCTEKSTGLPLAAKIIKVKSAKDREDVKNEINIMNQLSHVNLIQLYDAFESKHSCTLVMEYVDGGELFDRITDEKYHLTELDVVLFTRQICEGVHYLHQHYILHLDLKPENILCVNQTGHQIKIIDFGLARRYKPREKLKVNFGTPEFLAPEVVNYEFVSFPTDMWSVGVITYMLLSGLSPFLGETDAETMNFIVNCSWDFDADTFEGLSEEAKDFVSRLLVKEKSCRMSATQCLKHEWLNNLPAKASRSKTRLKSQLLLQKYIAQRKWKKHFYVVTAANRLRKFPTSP
To be noted: MYLK3; for remaining activity at 0.5 µM / remaining activity at 0.1 µM: read-out: % Enzyme Activity (relative to DMSO controls); for remaining activity at 0.1 µM: 100 nM.
Text: as §1

Test [8] concerns the target 363 human kinases (including Aurora A/B/C) (Homo sapiens, UniProt Q76MJ5). The following applies: ERN2/IRE2, [ATP] 100 µM; for remaining activity at 0.5 µM / remaining activity at 0.1 µM: read-out: % Enzyme Activity (relative to DMSO controls); for remaining activity at 0.1 µM: 100 nM.
Text: as §1
Test [9] deals with T3, 363 human kinases (including Aurora A/B/C) (Homo sapiens, UniProt Q96PN8).
T3 sequence (Q96PN8 1-268): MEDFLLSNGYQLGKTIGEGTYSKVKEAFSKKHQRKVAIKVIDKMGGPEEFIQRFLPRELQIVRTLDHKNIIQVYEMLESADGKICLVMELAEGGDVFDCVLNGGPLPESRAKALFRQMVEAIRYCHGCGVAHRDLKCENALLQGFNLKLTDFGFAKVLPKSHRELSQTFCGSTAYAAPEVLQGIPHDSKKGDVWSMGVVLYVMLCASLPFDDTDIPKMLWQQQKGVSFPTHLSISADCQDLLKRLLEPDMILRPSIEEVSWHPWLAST
The following applies: TSSK3/STK22C; for remaining activity at 0.5 µM / remaining activity at 0.1 µM: read-out: % Enzyme Activity (relative to DMSO controls); for remaining activity at 0.1 µM: 100 nM.
Text: as §1

In test [10] the target is 363 human kinases (including Aurora A/B/C) (Homo sapiens, UniProt Q9BYT3). To be noted: STK33; for remaining activity at 0.5 µM / remaining activity at 0.1 µM: read-out: % Enzyme Activity (relative to DMSO controls); for remaining activity at 0.1 µM: 100 nM.
Text: as §1
Test [11] deals with 363 human kinases (including Aurora A/B/C) (Homo sapiens, UniProt Q9HBH9). The following applies: MNK2; for remaining activity at 0.5 µM / remaining activity at 0.1 µM: read-out: % Enzyme Activity (relative to DMSO controls); for remaining activity at 0.1 µM: 100 nM.
Sequence of 363 human kinases (including Aurora A/B/C) (Homo sapiens, UniProt Q9HBH9) (Q9HBH9 whole entry): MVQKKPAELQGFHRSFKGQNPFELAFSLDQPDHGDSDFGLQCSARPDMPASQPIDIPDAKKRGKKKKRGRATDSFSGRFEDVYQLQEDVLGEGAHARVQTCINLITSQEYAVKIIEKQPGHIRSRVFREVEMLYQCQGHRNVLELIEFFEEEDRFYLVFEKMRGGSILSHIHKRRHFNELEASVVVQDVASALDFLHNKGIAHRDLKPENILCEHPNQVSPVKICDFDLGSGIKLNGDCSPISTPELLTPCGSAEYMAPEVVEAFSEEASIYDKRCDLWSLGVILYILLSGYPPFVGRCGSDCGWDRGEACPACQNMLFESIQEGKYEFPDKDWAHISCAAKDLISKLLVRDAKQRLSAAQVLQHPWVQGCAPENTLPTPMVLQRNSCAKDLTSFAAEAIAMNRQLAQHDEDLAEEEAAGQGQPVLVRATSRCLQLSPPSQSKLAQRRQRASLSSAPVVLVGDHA
Text: as §1

Sequence of 363 human kinases (including Aurora A/B/C) (Homo sapiens, UniProt P53350) (P53350 whole entry): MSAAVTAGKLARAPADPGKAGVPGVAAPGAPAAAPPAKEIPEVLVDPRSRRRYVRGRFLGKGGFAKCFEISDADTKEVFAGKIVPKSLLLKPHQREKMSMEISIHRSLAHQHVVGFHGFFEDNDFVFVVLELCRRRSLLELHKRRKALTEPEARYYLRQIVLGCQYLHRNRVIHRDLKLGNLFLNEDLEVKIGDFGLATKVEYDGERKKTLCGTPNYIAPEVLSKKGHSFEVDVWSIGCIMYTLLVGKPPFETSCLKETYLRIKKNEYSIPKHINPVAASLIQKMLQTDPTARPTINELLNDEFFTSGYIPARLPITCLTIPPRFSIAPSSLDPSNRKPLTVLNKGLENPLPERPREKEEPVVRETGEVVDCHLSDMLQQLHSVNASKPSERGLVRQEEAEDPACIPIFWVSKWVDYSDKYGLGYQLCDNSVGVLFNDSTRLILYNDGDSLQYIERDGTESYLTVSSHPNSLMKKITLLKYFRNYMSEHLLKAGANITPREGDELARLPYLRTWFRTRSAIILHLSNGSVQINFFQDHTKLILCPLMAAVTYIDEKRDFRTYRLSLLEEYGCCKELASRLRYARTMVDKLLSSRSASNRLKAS
Sequence of 363 human kinases (including Aurora A/B/C) (Homo sapiens, UniProt P08581) (P08581 25-1390): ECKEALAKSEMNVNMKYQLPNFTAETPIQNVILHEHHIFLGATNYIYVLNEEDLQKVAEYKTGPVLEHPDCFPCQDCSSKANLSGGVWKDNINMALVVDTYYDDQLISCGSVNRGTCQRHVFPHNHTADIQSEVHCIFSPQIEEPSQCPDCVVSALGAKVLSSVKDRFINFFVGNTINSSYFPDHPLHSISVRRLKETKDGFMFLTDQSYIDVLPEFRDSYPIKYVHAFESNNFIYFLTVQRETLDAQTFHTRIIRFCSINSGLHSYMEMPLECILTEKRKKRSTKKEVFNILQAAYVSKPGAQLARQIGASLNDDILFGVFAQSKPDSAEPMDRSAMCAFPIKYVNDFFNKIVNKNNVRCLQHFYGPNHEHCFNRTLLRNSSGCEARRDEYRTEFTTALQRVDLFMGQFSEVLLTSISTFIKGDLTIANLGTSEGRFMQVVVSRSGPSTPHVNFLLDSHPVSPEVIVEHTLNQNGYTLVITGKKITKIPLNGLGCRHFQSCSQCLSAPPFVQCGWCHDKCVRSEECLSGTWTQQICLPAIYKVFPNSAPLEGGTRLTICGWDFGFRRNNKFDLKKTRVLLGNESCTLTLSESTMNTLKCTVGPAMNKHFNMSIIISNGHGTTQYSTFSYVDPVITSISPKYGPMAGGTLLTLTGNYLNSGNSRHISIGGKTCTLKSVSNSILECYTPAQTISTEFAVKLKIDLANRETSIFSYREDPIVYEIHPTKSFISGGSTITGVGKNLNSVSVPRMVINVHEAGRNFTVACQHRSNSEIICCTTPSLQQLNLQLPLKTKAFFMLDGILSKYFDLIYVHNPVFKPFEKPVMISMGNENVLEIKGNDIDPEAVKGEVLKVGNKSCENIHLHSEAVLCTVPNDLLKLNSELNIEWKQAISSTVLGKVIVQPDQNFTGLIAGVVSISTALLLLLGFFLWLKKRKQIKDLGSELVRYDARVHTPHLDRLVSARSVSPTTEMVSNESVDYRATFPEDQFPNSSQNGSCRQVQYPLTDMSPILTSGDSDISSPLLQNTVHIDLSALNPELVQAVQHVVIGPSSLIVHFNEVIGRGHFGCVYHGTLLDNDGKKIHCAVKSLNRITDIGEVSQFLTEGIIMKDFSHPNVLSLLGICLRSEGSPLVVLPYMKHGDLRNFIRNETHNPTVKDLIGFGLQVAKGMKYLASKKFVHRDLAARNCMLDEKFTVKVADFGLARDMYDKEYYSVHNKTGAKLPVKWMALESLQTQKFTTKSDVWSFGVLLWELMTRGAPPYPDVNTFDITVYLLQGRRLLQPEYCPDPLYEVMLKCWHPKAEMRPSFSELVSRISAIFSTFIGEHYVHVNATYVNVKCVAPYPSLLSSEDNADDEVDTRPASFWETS
Sequence of 363 human kinases (including Aurora A/B/C) (Homo sapiens, UniProt Q16644) (Q16644 whole entry): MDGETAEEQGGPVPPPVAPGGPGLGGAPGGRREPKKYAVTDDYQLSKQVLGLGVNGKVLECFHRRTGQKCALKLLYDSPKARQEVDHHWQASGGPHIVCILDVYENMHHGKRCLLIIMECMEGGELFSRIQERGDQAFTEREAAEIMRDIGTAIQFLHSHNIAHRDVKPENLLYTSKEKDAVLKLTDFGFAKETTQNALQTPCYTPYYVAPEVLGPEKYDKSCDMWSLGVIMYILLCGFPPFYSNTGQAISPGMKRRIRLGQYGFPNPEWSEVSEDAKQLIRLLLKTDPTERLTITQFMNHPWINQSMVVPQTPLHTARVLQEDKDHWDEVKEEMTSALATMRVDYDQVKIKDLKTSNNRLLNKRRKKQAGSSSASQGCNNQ
Sequence of 363 human kinases (including Aurora A/B/C) (Homo sapiens, UniProt P49841) (P49841 whole entry): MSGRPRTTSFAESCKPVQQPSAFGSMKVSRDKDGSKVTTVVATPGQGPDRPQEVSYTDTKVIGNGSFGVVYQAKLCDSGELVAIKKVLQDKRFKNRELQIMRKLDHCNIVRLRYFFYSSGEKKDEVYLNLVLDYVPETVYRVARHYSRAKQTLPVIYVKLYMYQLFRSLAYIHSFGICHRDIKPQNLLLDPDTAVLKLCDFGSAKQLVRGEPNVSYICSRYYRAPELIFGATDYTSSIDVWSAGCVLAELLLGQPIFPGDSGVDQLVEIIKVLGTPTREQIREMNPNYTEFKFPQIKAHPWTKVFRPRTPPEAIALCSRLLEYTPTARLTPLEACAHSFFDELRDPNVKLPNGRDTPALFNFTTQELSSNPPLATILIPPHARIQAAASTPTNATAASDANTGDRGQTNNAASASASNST
Sequence of 363 human kinases (including Aurora A/B/C) (Homo sapiens, UniProt Q9BYT3) (Q9BYT3 whole entry): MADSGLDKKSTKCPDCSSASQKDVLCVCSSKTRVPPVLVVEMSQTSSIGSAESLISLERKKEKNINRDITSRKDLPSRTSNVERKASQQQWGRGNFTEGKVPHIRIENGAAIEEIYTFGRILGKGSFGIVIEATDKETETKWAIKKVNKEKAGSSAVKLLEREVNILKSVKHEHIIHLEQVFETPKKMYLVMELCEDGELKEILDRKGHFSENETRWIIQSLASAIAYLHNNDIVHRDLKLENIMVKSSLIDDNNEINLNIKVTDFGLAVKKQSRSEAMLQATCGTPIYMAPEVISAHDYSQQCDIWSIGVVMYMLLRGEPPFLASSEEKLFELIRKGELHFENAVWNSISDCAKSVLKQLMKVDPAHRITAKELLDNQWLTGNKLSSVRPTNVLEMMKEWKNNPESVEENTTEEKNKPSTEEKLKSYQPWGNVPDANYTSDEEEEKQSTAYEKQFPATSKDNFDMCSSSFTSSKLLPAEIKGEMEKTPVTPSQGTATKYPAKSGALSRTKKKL
Sequence of 363 human kinases (including Aurora A/B/C) (Homo sapiens, UniProt Q76MJ5) (Q76MJ5 35-926): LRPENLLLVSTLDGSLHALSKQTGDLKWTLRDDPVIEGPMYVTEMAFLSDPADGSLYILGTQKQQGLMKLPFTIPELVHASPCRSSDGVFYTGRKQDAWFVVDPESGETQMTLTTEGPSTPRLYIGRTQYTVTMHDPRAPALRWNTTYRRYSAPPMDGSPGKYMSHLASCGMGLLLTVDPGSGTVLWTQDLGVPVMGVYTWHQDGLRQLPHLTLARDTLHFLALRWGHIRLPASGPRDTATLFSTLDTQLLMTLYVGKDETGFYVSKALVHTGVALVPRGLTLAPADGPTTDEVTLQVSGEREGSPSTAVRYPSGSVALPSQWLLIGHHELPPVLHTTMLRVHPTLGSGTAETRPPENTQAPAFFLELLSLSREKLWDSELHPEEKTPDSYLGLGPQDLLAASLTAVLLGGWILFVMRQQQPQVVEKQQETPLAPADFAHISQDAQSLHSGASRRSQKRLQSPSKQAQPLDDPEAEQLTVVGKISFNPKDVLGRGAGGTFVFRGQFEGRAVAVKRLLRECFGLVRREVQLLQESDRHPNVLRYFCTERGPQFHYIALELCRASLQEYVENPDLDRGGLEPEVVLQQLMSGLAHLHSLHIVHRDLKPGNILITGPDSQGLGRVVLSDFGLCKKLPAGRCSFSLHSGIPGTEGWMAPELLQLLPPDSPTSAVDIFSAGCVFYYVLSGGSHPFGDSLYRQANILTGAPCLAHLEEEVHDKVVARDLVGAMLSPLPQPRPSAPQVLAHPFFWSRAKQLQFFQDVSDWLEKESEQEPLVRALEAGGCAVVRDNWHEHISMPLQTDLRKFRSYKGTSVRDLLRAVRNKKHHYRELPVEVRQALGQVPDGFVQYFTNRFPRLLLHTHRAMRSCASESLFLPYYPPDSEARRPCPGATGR

As to `O=C(c1cccc(Cl)c1F)N1CCN(Cc2cccc(Nc3nccs3)n2)CC1` [MK-8745], the “% Enzyme Activity (relative to DMSO controls)” value in test [1] (500 nM) was 76.29%; in test [2] (500 nM), 28.78%; in test [3] (500 nM), 94.27%; in [4] (500 nM), 46.49%; in [5] (500 nM), 99.72%; in test [6] (500 nM) it was 87.18%. The “% Enzyme Activity (relative to DMSO controls)” value is reported as 102.40% in test [7] (500 nM); 93.54% in [8] (500 nM); 94.05% in test [9] (500 nM); 107.39% in test [10] (500 nM); 97.70% in [11] (500 nM). For the same compound, the remaining activity at 0.5 µM was 77.2% in test [1] (500 nM); 29.6% in test [2] (500 nM); 95.1% in [3] (500 nM); 46.6% in test [4] (500 nM); 101% in test [5] (500 nM); 88.7% in [6] (500 nM). For the same compound, the remaining activity at 0.5 µM in test [7] (500 nM) is 103%; in [8] (500 nM), 94.5%; in test [9] (500 nM), 95.9%; in [10] (500 nM) it was 110%; in [11] (500 nM), 97.9%.

On to `CCn1cc(-c2ccnc3[nH]c(-c4cccc(CN(C)C)c4)cc23)c(-c2ccc(NC(=O)N(C)C)cc2)n1` [GSK1070916], for which the remaining activity at 0.1 µM in test [1] was determined as 84.8%; in test [2] it was 102%; in [3], 96.5%; in [4], 105%; in test [5] it was 101%; in test [6] it was 93.8%. Moreover, the remaining activity at 0.1 µM in [7] came out at 102%; in [8], 87.3%; in test [9], 83%; in test [10], 111%; in test [11], 96.9%.

Consider `O=C(O)[C@]1(Cc2cccc(Nc3nccs3)n2)CC[C@@H](Oc2cccc(Cl)c2F)CC1` [MK-5108], for which the remaining activity at 0.1 µM came out at 74.5% in test [1]; 37.7% in [2]; 101% in [3]; 81.8% in [4]; 95.5% in test [5]; 99.7% in test [6]. The remaining activity at 0.1 µM in [7] is 97.3%; in [8], 97%; in [9], 101%; in test [10] it was 79.3%; in test [11] it was 105%. For the same compound, the remaining activity at 0.5 µM in [1] (500 nM) was found to be 50.3%; in test [2] (500 nM), 6.95%; in test [3] (500 nM), 100%; in test [4] (500 nM), 65.6%; in test [5] (500 nM) it was 97.8%; in test [6] (500 nM), 84.9%. Further, the remaining activity at 0.5 µM in test [7] (500 nM) stood at 99.7%; in test [8] (500 nM), 87.6%; in test [9] (500 nM) it was 91.3%; in test [10] (500 nM), 70.5%; in [11] (500 nM), 95%.

Source of the values: article PMC4685510, “A Cell Biologist’s Field Guide to Aurora Kinase Inhibitors” (Frontiers in Oncology, 2015).
